Source: patent US8999952B2, “Aripiprazole complex formulation and method” (Otsuka Pharmaceutical Co., Ltd., priority 2002, dated 2015)

How the values were obtained:
[1] = aqueous solubility; assay type: physicochemical; settings: water; at room temperature
[2] = tissue irritation at the intramuscular injection site; assay type: in vivo; settings: intramuscular (IM) injectable solution in water-miscible co-solvent and water-immiscible solvent/co-solvent systems

solubility [1]: < 1 µg/mL
Structure (SMILES): O=C1CCc2ccc(OCCCCN3CCN(c4cccc(Cl)c4Cl)CC3)cc2N1 [Aripiprazole]
tissue irritation at the muscular site [2]: unacceptable (moderate to severe) tissue irritation
